Data published in patent US6046231A, “Use of 4'-bromoflavone in a cancer chemopreventative composition and method” (The Board of Trustees of the University of Illinois, priority 1999, dated 2000).
Read-outs that look alike come from different tables or passages of the source.

Tests used:
Hepa 1c1c7 cells = test: Hepa 1c1c7 cell viability (cytotoxicity); assay type: cell-based, murine; settings: Mus musculus
[1] = test system: quinone reductase (QR), Hepa 1c1c7 cells; test: Quinone reductase (QR) induction in Hepa 1c1c7 cells; assay type: cell-based, murine; settings: for CI, chemoprevention index (IC50/CD): 2880 min
Excerpt: This test was used because the specific activity of QR rises concomitantly with other phase II enzymes in many animal tissues in response to various chemopreventive agents. The study included natural and synthetic B-ring substituted flavones, as well as biosynthetic precursor chalcones and flavanones.
Determination of Quinone Reductase Activity in Cell Cultures. To determine the potency of inducers, Hepa 1c1c7 murine hepatoma cells as described in the Gerhauser publication were placed in 96-well plates at a density of 1×10^4 cells/ml in 200 μl of medium. After a preincubation period of 24 hr, the media were decanted and 190 μl fresh media were added to each well. Ten (10) μl test agents dissolved in 10% DMSO (final concentration of DMSO is 0.5%) with a serial 2-fold dilutions were introduced to each well, and the plates were incubated for an additional 48 hours. Specific QR activity was determined by measuring the NADPH-dependent menadiol-mediated reduction of 3-(4, 5-dimethylthiazo-2-yl)-2,5-diphenyltetrazolium bromide to blue formazan formed per mg protein per minute. Protein was determined in an identical set of test plates by staining with crystal violet. Hepa 1c1c7 cells retain many characteristics of normal issues, particularly the capacity for carcinogen activation and metabolism. They are amenable to precise control of environmental, nutritional, and hormonal factors. […] Induction of QR activity was calculated by comparing the QR specific activity of agent-treated cells with that of solvent-treated cells, and a plot of ratio was generated. CD represents the concentration required to double QR induction. Chemopreventive index (CI) is an indexing value generated by comparing CD with IC50 (concentration for 50% inhibition of cell viability) values.
Induction of Quinone Reductase in Hepa 1c1c7 Cells. […] Modification of the B-ring of chalcones, flavanones, and flavones was hypothesized to induce torsion of the B-ring, and, therefor, simulate out-of-plane distortions characteristic of polycyclic aromatic hydrocarbons, such as DMBA. Induction of QR activity was calculated by comparing the QR specific activity of agent-treated cells with the QR specific activity of solvent-treated cells, and a plot of ratios was generated. CD represents the concentration required for a double fold of induction. CI (Chemopreventive Index) is a value obtained by comparing CD with IC50 (concentration for 50% inhibition of cell viability in […]).

cytochrome P4501A1 = target: T1, cytochrome P4501A1 (Rattus norvegicus, UniProt P00185); test: biochemical
T1 sequence (P00185 1-524): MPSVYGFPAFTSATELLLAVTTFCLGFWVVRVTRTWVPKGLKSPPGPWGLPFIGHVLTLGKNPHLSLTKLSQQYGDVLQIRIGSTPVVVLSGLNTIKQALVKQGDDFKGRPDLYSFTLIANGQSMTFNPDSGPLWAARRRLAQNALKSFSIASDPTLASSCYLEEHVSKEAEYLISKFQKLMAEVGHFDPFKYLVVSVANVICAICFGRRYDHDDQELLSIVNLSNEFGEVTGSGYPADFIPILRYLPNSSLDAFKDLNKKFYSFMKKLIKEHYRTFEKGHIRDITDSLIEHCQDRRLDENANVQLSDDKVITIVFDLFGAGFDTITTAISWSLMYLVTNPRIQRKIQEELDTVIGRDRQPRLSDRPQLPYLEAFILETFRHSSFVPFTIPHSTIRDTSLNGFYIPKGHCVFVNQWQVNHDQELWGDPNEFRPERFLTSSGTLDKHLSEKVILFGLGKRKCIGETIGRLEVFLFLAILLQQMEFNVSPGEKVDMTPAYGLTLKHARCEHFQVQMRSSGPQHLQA
Experimental: Inhibition of DMBA-induced Cytochrome P4501A1 Activity. Female Sprague Dawley rats (43 days of age) were treated with DMBA (i.g.), and liver microsomes were isolated through differential centrifugation. Cytochrome P4501A1 activity was monitored by assessing EROD activity. Briefly, 200 μl of microsomal protein (2 mg/ml) were added to a reaction mixture containing 640 μl of 0.05 M Tris-HCl buffer (pH 7.5), 100 μl of BSA (10 mg/ml in Tris buffer), 20 μl of 0.25 M MgCl2, 40 μl of cofactor solution (0.3282 g of NADP and 1.417 g of glucose 6-phosphate in 40 ml of 1.15% KCl), 2.5 units of glucose 6-phosphate dehydrogenase, 10 μl of substrate (1 mg of ethoxyresorufin in 10 ml of methanol) and 10 μl of various concentrations of 4'-BF in DMSO (α-naphthoflavone as positive control; DMSO as negative control). After incubating at 37° C. for 4 min, the reactions were terminated by the addition of 2 ml of methanol. Samples were then centrifuged for 20 min at 2,000×g. and 200 μl of the supernatant fractions were transferred to 96-well plates and read on a spectrofluorimeter (500 nm excitation and 585 nm emission). Assays were conducted in triplicate and the percent of inhibition was calculated as: [1-(sample A-blank)/(DMSO A-blank)]×100.

[2] = Hepa-1c1c7, Hepa 1c1c7 cells, read-out: IC50, concentration for 50% inhibition of cell viability
[3] = Mus musculus, Hepa-1c1c7, 48 h, Hepa 1c1c7 cells, 48 h, read-out: CD, concentration to double the specific activity of QR
[4] = Hepa-1c1c7, read-out: IC50, concentration for 50% inhibition of cell viability
[5] = Hepa 1c1c7 cells, 48 h, read-out: CD, concentration to double the specific activity of QR
[6] = Mus musculus, Hepa-1c1c7, 48 h, read-out: CD, concentration to double the specific activity of QR, Hepa 1c1c7 cells, 48 h

| CI, chemoprevention index (IC50/CD) [1] | IC50 (cytochrome P4501A1) | SMILES | IC50 (Hepa 1c1c7 cells; [2]) | Cq ([1]; Hepa 1c1c7 cells) | EC (2-fold) [1, 3] | IC50 (Hepa 1c1c7 cells; [4]) | EC (2-fold) ([1]; Hepa 1c1c7 cells, 48 h, listed as 3'-chloroflavone, read-out: CD, concentration to double the specific activity of QR) | EC (2-fold) [1, 5] | EC (2-fold) [1, 6] |
| --- | --- | --- | --- | --- | --- | --- | --- | --- | --- |
| 63 |  | O=c1cc(-c2cccc(F)c2)oc2ccccc12 [3'-Fluoroflavone] | 42 µM | 1.24 µM | 0.67 µM |  |  |  |  |
| 16 |  | O=C(/C=C/c1cccc(Br)c1)c1ccccc1O [3-Bromo-2'-hydroxychalcone] | 21 µM | 8.2 µM | 1.3 µM |  |  |  |  |
| 27 |  | O=C1CC(c2ccc(Br)cc2)Oc2ccccc21 (centres unmarked) [4'-Bromoflavanone] | 63 µM | 11 µM | 2.3 µM |  |  |  |  |
| > 24 |  | O=c1cc(-c2ccc(F)cc2)oc2ccccc12 [4'-Fluoroflavone] | > 83 µM | 32 µM | 3.4 µM |  |  |  |  |
| 3000 |  | O=c1cc(-c2ccc(C(F)(F)F)cc2)oc2ccccc12 [4'-Trifluoromethylflavone] | 90 µM | 0.1 µM | 0.03 µM |  |  |  |  |
| 42 |  | O=c1cc(-c2ccccc2)oc2ccccc12 [Flavone] | 106 µM | 8.3 µM | 2.5 µM |  |  |  |  |
|  | 0.09 µM | O=c1cc(-c2ccccc2)oc2c1ccc1ccccc12 [a-naphthoflavone, α-naphthoflavone, reference compound] |  |  |  |  |  |  |  |

Continued, molecule first:

| SMILES | CI, chemoprevention index (IC50/CD) [1] | IC50 (cytochrome P4501A1) | IC50 (Hepa 1c1c7 cells; [2]) | Cq ([1]; Hepa 1c1c7 cells) | EC (2-fold) [1, 3] | IC50 (Hepa 1c1c7 cells; [4]) | EC (2-fold) ([1]; Hepa 1c1c7 cells, 48 h, listed as 3'-chloroflavone, read-out: CD, concentration to double the specific activity of QR) | EC (2-fold) [1, 5] | EC (2-fold) [1, 6] |
| --- | --- | --- | --- | --- | --- | --- | --- | --- | --- |
| O=c1cc(-c2cccc(Br)c2)oc2ccccc12 [3'-Bromoflavone] | 32 |  | 3.2 µM | 4.4 µM | 0.1 µM |  |  |  |  |
| O=c1cc(-c2cccc(Cl)c2)oc2ccccc12 [3'-Chloroflavone] | > 40 |  |  | toxic |  | 23 µM | 0.27 µM | < 0.58 µM |  |
| O=c1cc(-c2ccc(Cl)cc2)oc2ccccc12 [4'-Chloroflavone] | > 5000 |  |  | 0.66 µM |  | > 78 µM |  | 0.02 µM | 0.016 µM |
| O=C(/C=C/c1ccc(Br)cc1)c1ccccc1O [4-Bromo-2'-hydroxychalcone] | 4 |  |  | 66 µM |  | 66 µM |  |  | 18 µM |
| O=C(/C=C/c1ccccc1)c1ccccc1 [Chalcone, reference compound] |  |  | 33 µM |  |  |  |  |  |  |
